Measured values as given in US6369104B1, “Biocidal compositions and use thereof containing a synergistic mixture of glutaraldehyde and 2,2-dibromo-3 nitrilo propionamide” (Hercules Incorporated, priority 2000, dated 2002).

Tested on: Klebsiella pneumoniae
Assay: Checkerboard growth inhibition (turbidity at 590 nm) with Kull synergism index
Type: cell-based
Method: Glutaraldehyde and DBNPA were added in varying ratios over a wide range of concentrations to a liquid nutrient medium which was subsequently inoculated with a standard volume of a suspension of the facultative bacterium Klebsiella pneumoniae. Growth was measured by turbidity at 590 nm in a microplate spectrophotometer. The effect of the biocide chemicals, alone and in combination, is to reduce the growth (turbidity) of the bacterial cells as compared to controls not treated with the chemicals. Additions of the biocides, alone and in varying combinations and concentrations, were made according to the accepted “checkerboard” technique described by M. T. Kelly and J. Matsen, Antimicrobial Agents and Chemotherapy. 9:440 (1976). Growth was measured after overnight incubation at 30° C. Each unique sample concentration was tested in triplicate. The percent reduction of each treated sample was calculated from the relationship: [formula]
Plotting the % reduction of turbidity against the concentration of each biocide acting alone results in a dose-response curve, from which the biocide dose necessary to achieve a given % reduction can be interpolated.
Synergism was determined by the method of calculation described by F. C. Kull, P. C. Eisman, H. D. Sylwestrowicz and R. L. Mayer, Applied Microbiology, 9:538 (1961) using the relationship:
(QA/Qa)+(QB/Qb)=Synergism Index (SI)
Qa=quantity of compound A, acting alone, producing an end point
Qb=quantity of compound B, acting alone, producing an end point
QA=quantity of compound A, in mixture, producing an end point
QB=quantity of compound B, in mixture, producing an end point
The end point used in the calculations is the % reduction caused by each mixture of A and B. QA and QB are the individual concentrations in the A/B mixture causing a given % reduction. QA and QB are determined by interpolation from the respective dose-response curves of A and B as those concentrations of A and B acting alone which produce the same % reduction as each specific mixture produced.
Dose-response curves for each active acting alone were determined by linear regression analysis of dose-response data. Data were fitted to a curve represented by the equation shown with each data set. After linearizing the data, the contributions of each biocide component in the biocide mixtures to the inhibition of turbidity were determined by a linear regression method with the dose-response curve of the respective biocide. If, for example, quantities of QA and QB are sufficient to give a 50% reduction in turbidity, Qa and Qb are those quantities of A and B acting alone respectively, found to give 50% reduction in turbidity. A synergism index (SI) is calculated for each combination of A and B.
Where the SI is less than 1, synergism exists. Where the SI=1, additivity exists. Where SI is greater than 1, antagonism exists.
The data in the following tables come from treating Klebsiella pneumoniae, a common nuisance bacterial type found in industrial cooling waters and in pulping and paper making systems, with varying ratios and concentrations of glutaraldehyde and DBNPA. Shown for each combination is the % reduction of turbidity (%I), the calculated SI, and the weight ratio of glutaraldehyde and DBNPA.

N#CC(Br)(Br)C(N)=O [DBNPA, 2,2-dibromo-3-nitrilopropionamide]
% I (% reduction of turbidity) (Table I, DBNPA 3.2 ppm alone): 60%
% I (% reduction of turbidity) (Table I, DBNPA 6.3 ppm alone): 62%
% I (% reduction of turbidity) (Table I, DBNPA 12.5 ppm alone): 65%
% I (% reduction of turbidity) (Table I, DBNPA 25 ppm alone): 72%
% I (% reduction of turbidity) (Table I, DBNPA 50 ppm alone): 86%
% I (% reduction of turbidity) (Table I, DBNPA 100 ppm alone): 100%
% I (% reduction of turbidity) (Table II, DBNPA 3.2 ppm alone): 84%
% I (% reduction of turbidity) (Table II, DBNPA 6.3 ppm alone): 85%
% I (% reduction of turbidity) (Table II, DBNPA 12.5 ppm alone): 87%
% I (% reduction of turbidity) (Table II, DBNPA 25 ppm alone): 89%
% I (% reduction of turbidity) (Table II, DBNPA 50 ppm alone): 95%
% I (% reduction of turbidity) (Table II, DBNPA 100 ppm alone): 100%

O=CCCCC=O [Glutaraldehyde, glutaraldehyde]
% I (% reduction of turbidity) (Table I, Glutaraldehyde 9.4 ppm alone): 0%
% I (% reduction of turbidity) (Table I, Glutaraldehyde 18.8 ppm alone): 0%
% I (% reduction of turbidity) (Table I, Glutaraldehyde 37.5 ppm alone): 6%
% I (% reduction of turbidity) (Table I, Glutaraldehyde 75 ppm alone): 22%
% I (% reduction of turbidity) (Table I, Glutaraldehyde 150 ppm alone): 53%
% I (% reduction of turbidity) (Table I, Glutaraldehyde 300 ppm alone): 100%
% I (% reduction of turbidity) (Table II, Glutaraldehyde 9.4 ppm alone): 2%
% I (% reduction of turbidity) (Table II, Glutaraldehyde 18.8 ppm alone): 6%
% I (% reduction of turbidity) (Table II, Glutaraldehyde 37.5 ppm alone): 13%
% I (% reduction of turbidity) (Table II, Glutaraldehyde 75 ppm alone): 28%
% I (% reduction of turbidity) (Table II, Glutaraldehyde 150 ppm alone): 58%
% I (% reduction of turbidity) (Table II, Glutaraldehyde 300 ppm alone): 100%
